Paper PMC8791477, “Evaluation of SARS-CoV-2 entry, inflammation and new therapeutics in human lung tissue cells” (PLoS Pathogens, 2022)
Counter-ions that a name gives are not always drawn.

B1: IL-10 (protein, UniProt P22301 19-178, looked up)
Interleukin-10: SPGQGTQSENSCTHFPGNLPNMLRDLRDAFSRVKTFFQMKDQLDNLLLKESLLEDFKGYLGCQALSEMIQFYLEEVMPQAENQDPDIKAHVNSLGENLKTLRLRLRRCHRFLPCENKSKAVEQVKNAFNKLQEKGIYKAMSEFDIFINYIEAYMTMKIRN

Tests used:
in vitro [1] = conditions: human, CC50 HLT
in vitro [2] = conditions: African green monkey
[3] = tested on: IL-6 and CXCL10 expression; test: Immunomodulatory capacity: IL-6 and CXCL10 in LPS + IFN-γ stimulated HLT myeloid cells; format: cell-based, human; conditions: 20μM, LPS 50 ng/ml + IFN-γ 100 ng/ml, 20h
Protocol: HLT cells were cultured in a round-bottom 96-well plate containing 20 μM of cepharanthine, ergoloid, ciclesonide, hydroxychloroquine, ivermectin, or camostat mesylate alone or in combination with the stimuli LPS (50 ng/ml) and IFN-γ (100 ng/ml). For each patient, a negative control, cells treated with only medium, and a positive control, cells incubated in the presence of LPS and IFN-γ, were included. Immediately, brefeldin A (BD Biosciences) and monensin (BD Biosciences) were added to cells and cultured overnight at 37°C in 5% CO2. Next day, cellular suspensions were stained with the following antibodies: anti-CD11b (FITC, BioLegend), anti-CD69 (PE-CF594, BD Biosciences), anti-CD14 (APC-H7, BD Biosciences), anti-EpCAM (APC, BioLegend), anti-CD3 (BV650, BD Biosciences), anti-CD45 (BV605, BioLegend), and anti-HLA-DR (BV421, BioLegend). Cells were subsequently fixed and permeabilized using the Cytofix/Cytoperm kit (BD Biosciences) and intracellularly stained with anti-IL-6 (PE-Cy7, BioLegend), and anti-CXCL10 (PE, BioLegend). Cell viability was determined using an AQUA viability dye for flow cytometry (LIVE/DEAD fixable AQUA, Invitrogen). After fixation with PBS 2% PFA, cells were acquired in an LSR Fortessa (BD Biosciences), and data were analyzed using the FlowJo v10.6.1 software (TreeStar).

COVID-19 patients = conditions: cited from earlier work
SARS-CoV-2 = conditions: cited from earlier work
VeroE6 cells = conditions: for CC50: read-out: CC50 Vero E6, absence of virus
HLT cells = conditions: for CC50: read-out: CC50 HLT, absence of virus
ACE2 expression = test: Modulation of ACE2 expression in enriched AT-II cells of HLT (flow cytometry); format: cell-based, human; conditions: 20h; for ACE2 expression after anti-inflammatory drugs (in words): 100μM to 0.8μM; for ACE2 expression in enriched AT-II cells after immune stimuli (in words): IL-1β 10 ng/ml, IL-10 and GM-CSF 100 ng/ml, IFN 100 U/ml
Protocol: VeroE6 and lung cells were incubated with five-fold serial dilutions of selected anti-inflammatory compounds (ranging from 100μM to 0.8μM) for 20h. […] For determination of ACE2 expression, the following surface staining antibodies were used: primary goat anti-ACE2 (R&D Systems), anti-CD45 (AF700, BioLegend), anti-EpCAM (APC, BioLegend), and anti-HLA-DR (BV421, BioLegend). For ACE2 detection, cells were then stained with secondary donkey anti-goat IgG (PE, R&D Systems) for 30 min at 4°C. A Fluorescent Minus One control (FMO) without primary anti-ACE2 antibody was used as a control. Cell viability was determined using an AQUA viability dye for flow cytometry (LIVE/DEAD fixable AQUA, Invitrogen). After fixation with PBS 2% PFA, cells were acquired in an LSR Fortessa (BD Biosciences) and analyzed using the FlowJo v10.6.1 software (TreeStar).

[4] = tested on: SARS-CoV-2 clinical isolate; format: cell-based
thrombin = conditions: cited from earlier work
[5] = 10µM, ref Hempel et al., Chemical Science 2021

Row | Molecule | CC50 (in vitro [1]; absence of virus) [µM] | CC50 (in vitro [2]; CC50 Vero E6, absence of virus) [µM] | other results
1 | CN(C)C(=O)COC(=O)Cc1ccc(OC(=O)c2ccc(NC(=N)N)cc2)cc1 [Camostat, Camostat mesylate] | – | – | CC50 (in vitro [1]): > 100 µM; CC50 (in vitro [2]; CC50 Vero E6): > 100 µM; expression of CXCL10 in CD11b+CD14- myeloid cells (in words) [3]: significantly reduced; expression of IL-6 in CD11b+CD14+ myeloid cells (in words) [3]: significantly reduced; clinical benefit (in words) (COVID-19 patients; COVID-19 patients receiving camostat within the first 48h of admission): no significant benefit; activity in precision-cut lung slices (in words) (SARS-CoV-2; 0.5µM, ref Hoffmann et al, EBiomedicine 2021): non-active; inhibition, donor 1 (SARS-CoV-2; [5]): 40%; inhibition, donor 2 (SARS-CoV-2; [5]): 60%; inhibition in precision-cut lung slices (SARS-CoV-2; 10µM, ref Hoffmann et al, EBiomedicine 2021): approx. 40%
2 | Cc1ccc(-c2cc(C(F)(F)F)nn2-c2ccc(S(N)(=O)=O)cc2)cc1 [Celecoxib] | ~100 | 13 | –
3 | COc1ccc2cc1Oc1ccc(cc1)C[C@H]1c3c(cc4c(c3Oc3cc5c(cc3OC)CCN(C)[C@@H]5C2)OCO4)CCN1C [Cepharanthine] | 13.8 | 22.3 | CC50 (VeroE6 cells): 22.4 µM; expression of IL-6 in CD11b+CD14+ myeloid cells (in words) [3]: reduced IL-6 production; CC50 (HLT cells): 16.1 µM
4 | CC(C)C(=O)OCC(=O)[C@@]12O[C@H](C3CCCCC3)O[C@@H]1C[C@H]1[C@@H]3CCC4=CC(=O)C=C[C@]4(C)[C@H]3[C@@H](O)C[C@@]12C [Ciclesonide] | > 100 | > 100 | expression of CXCL10 in CD11b+CD14- myeloid cells (in words) [3]: induced CXCL10 secretion
5 | C[C@]12CCC(=O)C=C1CC[C@@H]1[C@@H]2[C@@H](O)C[C@@]2(C)[C@H]1CC[C@]2(O)C(=O)CO [Cortisol] | > 100 | > 100 | ACE2 expression after anti-inflammatory drugs (in words) (ACE2 expression): no effect on ACE2 expression
6 | C[C@@H]1C[C@H]2[C@@H]3CCC4=CC(=O)C=C[C@]4(C)[C@@]3(F)[C@@H](O)C[C@]2(C)[C@@]1(O)C(=O)CO [Dexamethasone] | > 100 | > 100 | 28-day mortality (in words) (COVID-19 patients; patients receiving invasive mechanical ventilation): decreased
7 | O=C1C[C@@H](c2ccc(O)c(O)c2)Oc2cc(O)cc(O)c21 [Eriodictyol] | > 100 | > 100 | –
8 | CC1(C)[C@@H](O[C@H]2O[C@H](C(=O)O)[C@@H](O)[C@H](O)[C@H]2O[C@@H]2O[C@H](C(=O)O)[C@@H](O)[C@H](O)[C@H]2O)CC[C@]2(C)[C@H]3C(=O)C=C4[C@@H]5C[C@@](C)(C(=O)O)CC[C@]5(C)CC[C@@]4(C)[C@]3(C)CC[C@@H]12 [Glycyrrhizin] | > 100 | > 100 | –
9 | Oc1ccc(CC2NCCc3cc(O)c(O)cc32)cc1 (stereo not drawn) [Higenamine, Higenamine hydrochloride] | > 100 | > 100 | –
10 | CCN(CCO)CCCC(C)Nc1ccnc2cc(Cl)ccc12 (stereo not drawn) [Hydroxychloroquine] | > 100 | > 100 | cytotoxicity in VeroE6 (in words) (VeroE6 cells; up to 100μM): no apparent cytotoxicity; effectiveness as a treatment for COVID-19 (in words) (COVID-19 patients; clinical trials): failed to show effectiveness; cytotoxicity in HLT (in words) (HLT cells; up to 100μM): no apparent cytotoxicity; viral replication of replication-competent SARS-CoV-2 in HLT cells (in words) [4]: effective
11 | Cc1cc(O)c2c(=O)c3c(O)cc(O)c4c5c(O)cc(O)c6c(=O)c7c(O)cc(C)c8c1c2c(c34)c(c78)c65 [Hypericin] | 0.14 | 4.8 | –
12 | CC(C)Cc1ccc(C(C)C(=O)O)cc1 (stereo not drawn) [Ibuprofen] | > 100 | > 100 | ACE2 expression after anti-inflammatory drugs (in words) (ACE2 expression): no effect on ACE2 expression
13 | O=C1Nc2ccccc2/C1=C1/Nc2ccccc2C1=O [Indirubin] | – | – | CC50 (in vitro [1]): > 100 µM; CC50 (in vitro [2]; CC50 Vero E6): > 100 µM
14 | CCCCCCCCCCCC(=O)O [Lauric acid] | – | – | CC50 (VeroE6 cells): > 100 µM; CC50 (HLT cells): > 100 µM
15 | CC1(C)Cc2c(-c3ccccc3)c(-c3ccc(Cl)cc3)c(CC(=O)O)n2C1 [Licofelone] | ~53.6 | > 100 | –
16 | O=c1cc(-c2ccc(O)c(O)c2)oc2cc(O)cc(O)c12 [Luteolin] | > 100 | > 100 | –
17 | CN(C)C(=N)N=C(N)N [Metformin] | > 100 | > 100 | –
18 | CCCCCCCCCC(=O)OCC(O)CO (stereo not drawn) [Monocaprin] | – | – | CC50 (VeroE6 cells): > 100 µM; CC50 (HLT cells): > 100 µM
19 | CCCCCCCCCCCC(=O)OCC(O)CO (stereo not drawn) [Monolaurin] | – | – | CC50 (VeroE6 cells): > 100 µM; CC50 (HLT cells): > 100 µM
20 | O=c1c(O)c(-c2cc(O)c(O)c(O)c2)oc2cc(O)cc(O)c12 [Myricetin] | > 100 | > 100 | IC50 (thrombin): 56 µM

Row | Molecule | CC50 (in vitro [1]; absence of virus) [µM] | CC50 (in vitro [2]; CC50 Vero E6, absence of virus) [µM] | other results
21 | O=C1CN(/N=C/c2ccc([N+](=O)[O-])o2)C(=O)N1 [Nitrofurantoin] | – | – | CC50 (in vitro [1]): > 100 µM; CC50 (in vitro [2]; CC50 Vero E6): > 100 µM
22 | Cc1cccn2c(=O)c(-c3nnn[nH]3)cnc12 [Pemirolast, Pemirolast potassium] | > 100 | > 100 | –
23 | [H]/N=C(/N)N/C(=N/[H])NCCc1ccccc1 [Phenformin] | > 100 | > 100 | –
24 | C[C@]12C=CC(=O)C=C1CC[C@@H]1[C@@H]2C(=O)C[C@@]2(C)[C@H]1CC[C@]2(O)C(=O)CO [Prednisone] | > 100 | > 100 | ACE2 expression after anti-inflammatory drugs (in words) (ACE2 expression): no effect on ACE2 expression
25 | NC(=O)[C@@H]1CCCN1C(=O)[C@H](Cc1c[nH]cn1)NC(=O)[C@@H]1CCC(=O)N1 [Protilerin] | – | – | CC50 (VeroE6 cells): > 100 µM; CC50 (HLT cells): > 100 µM
26 | O=c1c(O)c(-c2ccc(O)c(O)c2)oc2cc(O)cc(O)c12 [Quercetin] | > 100 | > 100 | –
27 | CCCCCCCCCCCCOS(=O)(=O)[O-].[Na+] [SLS, Sodium lauryl sulfate] | – | – | CC50 (VeroE6 cells): 87 µM; CC50 (HLT cells): ~83.2 µM
28 | N[C@@H](CC(=O)N1CCn2c(nnc2C(F)(F)F)C1)Cc1cc(F)c(F)cc1F [Sitagliptin] | > 100 | > 100 | –
29 | Cc1ccnc(NS(=O)(=O)c2ccc(N)cc2)n1 [Sulfamerazine] | > 100 | > 100 | –
30 | CC1=C(CC(=O)O)c2cc(F)ccc2/C1=C\c1ccc([S+](C)[O-])cc1 (stereo not drawn) [Sulindac] | > 100 | > 100 | –
31 | C[C@]1(Cn2ccnn2)[C@H](C(=O)O)N2C(=O)C[C@H]2S1(=O)=O [Tazobactam] | > 100 | > 100 | –
32 | C[C@H](O)[C@H](O)[C@H]1CNc2nc(N)[nH]c(=O)c2N1 [Tetrahydrobiopterin, Tetrahydrobiopterin dihydrochloride] | > 100 | > 100 | –
33 | CC(C)[C@H](N)C(=O)OCCOCn1cnc2c(=O)[nH]c(N)nc21 [Valaciclovir] | > 100 | > 100 | –
34 | N#C[C@@H]1CCCN1C(=O)CNC12CC3CC(CC(O)(C3)C1)C2 [Vidagliptin, Vildagliptin] | > 100 | > 100 | –
35 | Ergoloid mesylates | – | – | CC50 (VeroE6 cells): 18.7 µM; expression of cytokines in CD11b+CD14+ myeloid cells (in words) [3]: significantly reduced the expression of cytokines; cell toxicity in HLT cells (HLT cells; 20 μM, 48h): > 60%; CC50 (HLT cells): ~100 µM
36 | GM-CSF | – | – | ACE2 expression in enriched AT-II cells after immune stimuli (in words) (ACE2 expression): did not impact ACE2 protein production
37 | IL-1β | – | – | ACE2 expression in enriched AT-II cells after immune stimuli (in words) (ACE2 expression): decreased the fraction of AT-II cells expressing ACE2
38 | Ivermectin | – | – | CC50 (VeroE6 cells): 20.2 µM; expression of cytokines in the HLT inflammation model (in words) [3]: did not affect the expression of cytokines; proportion of PCR-positive patients (in words) (COVID-19 patients; seven days after treatment): failed to show a reduction; CC50 (HLT cells): ~100 µM
39 | B1 | – | – | ACE2 expression in enriched AT-II cells after immune stimuli (in words) (ACE2 expression): did not impact ACE2 protein production
